Experimental data taken from PubChem BioAssay (NCI).
Where “and” joins values, the source holds several entries; their conditions need not be identical. Identical values can stand only once.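 How tested: cells in 96-well plates exposed to compound for 48 hours at five concentrations. Here, GI50 denotes the concentration required for 50% inhibition of growth. TGI: total growth inhibition.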

Key:
Assay in all cases: NCI-60 cell line screen, 48 h
[1] = test system: 786-0 renal
[2] = test system: A498 renal
[3] = test system: A549 NSCLC
[4] = test system: ACHN renal
[5] = test system: CAKI-1 renal
[6] = test system: CCRF-CEM leukemia
[7] = test system: COLO 205 colon
[8] = test system: DMS 114 small cell lung
[9] = test system: DMS 273 small cell lung
[10] = test system: EKVX NSCLC
[11] = test system: HCT-116 colon
[12] = test system: HCT-15 colon
[13] = test system: HL-60(TB) leukemia
[14] = test system: HOP-62 NSCLC
[15] = test system: HOP-92 NSCLC
[16] = test system: K-562 leukemia
[17] = test system: KM12 colon
[18] = test system: KM20L2 colon
[19] = test system: LOX IMVI melanoma
[20] = test system: LXFL 529 NSCLC
[21] = test system: M14 melanoma
[22] = test system: M19-MEL melanoma
[23] = test system: MOLT-4 leukemia
[24] = test system: NCI-H23 lung
[25] = test system: NCI-H460 lung
[26] = test system: NCI-H522 lung
[27] = test system: OVCAR-3 ovarian
[28] = test system: OVCAR-4 ovarian
[29] = test system: OVCAR-8 ovarian
[30] = test system: RPMI-8226 leukemia
[31] = test system: RXF 393 renal
[32] = test system: SF-268 CNS
[33] = test system: SF-295 CNS
[34] = test system: SK-MEL-28 melanoma
[35] = test system: SN12C renal
[36] = test system: SNB-19 CNS
[37] = test system: SNB-78 CNS
[38] = test system: SR leukemia
[39] = test system: SW-620 colon
[40] = test system: U251 CNS
[41] = test system: UACC-257 melanoma
[42] = test system: UO-31 renal
[43] = test system: XF 498 CNS
[44] = test system: BT-549 breast
[45] = test system: DU-145 prostate
[46] = test system: HCC-2998 colon
[47] = test system: HS 578T breast
[48] = test system: HT29 colon
[49] = test system: IGROV1 ovarian
[50] = test system: MALME-3M melanoma
[51] = test system: MCF7 breast
[52] = test system: MDA-MB-231 breast
[53] = test system: MDA-MB-435
[54] = test system: MDA-N
[55] = test system: NCI-H226 lung
[56] = test system: NCI/ADR-RES ovarian
[57] = test system: OVCAR-5 ovarian
[58] = test system: PC-3 prostate
[59] = test system: SF-539 CNS
[60] = test system: SK-MEL-2 melanoma
[61] = test system: SK-MEL-5 melanoma
[62] = test system: SK-OV-3 ovarian
[63] = test system: SNB-75 CNS
[64] = test system: T-47D breast
[65] = test system: TK-10 renal
[66] = test system: UACC-62 melanoma

## Cc1cc(NCCCCCCCCNc2cc(C)nc3cc(N(C)C)ccc23)c2ccc(N(C)C)cc2n1
[1]
  TGI: 21 µM
[2]
  TGI: 42.6 µM
[3]
  TGI: 21.8 µM
[4]
  TGI: 32.7 µM
[5]
  TGI: 72.1 µM
[6]
  TGI: 49.1 µM
[7]
  TGI: 5.5 µM
[8]
  TGI: 6.63 µM
[9]
  TGI: 16.5 µM
[10]
  TGI: 28.5 µM
[11]
  TGI: 14 µM
[12]
  TGI: > 100 µM
[13]
  TGI: 6.11 µM
[14]
  TGI: 29 µM
[15]
  TGI: 8.04 µM
[16]
  TGI: 28.5 µM
[17]
  TGI: 19.6 µM
[18]
  TGI: 27.3 µM
[19]
  TGI: 8.99 µM
[20]
  TGI: 16 µM
[21]
  TGI: 21.4 µM
[22]
  TGI: 10.8 µM
[23]
  TGI: > 100 µM
[24]
  TGI: 15.2 µM
[25]
  TGI: 19.5 µM
[26]
  TGI: 12.9 µM
[27]
  TGI: 18.4 µM
[28]
  TGI: 21.6 µM
[29]
  TGI: 38.2 µM
[30]
  TGI: 17.2 µM
[31]
  TGI: 28.7 µM
[32]
  TGI: 26.9 µM
[33]
  TGI: 30.2 µM
[34]
  TGI: 4.48 µM
[35]
  TGI: 21.5 µM
[36]
  TGI: 61.6 µM
[37]
  TGI: > 100 µM
[38]
  TGI: 43.9 µM
[39]
  TGI: 87.6 µM
[40]
  TGI: 9.45 µM
[41]
  TGI: 23.1 µM
[42]
  TGI: > 100 µM
[43]
  TGI: 7.3 µM

## C/C=C1/CN2CCC34c5ccccc5N5C(=O)C(C6CC78c9ccccc9N9C(=O)C=CC(C%10CC7N6C/C%10=C/C)C98)=CC(C1CC23)C54 (configuration not stated)
[1]
  GI50: 5.51 µM
  TGI: 11.3 µM and 20.1 µM
[2]
  GI50: 10.7 µM
  TGI: 16.6 µM and 23.7 µM
[3]
  GI50: 14.1 µM
  TGI: 18.9 µM and 32.3 µM
[4]
  GI50: 11.7 µM
  TGI: 13.6 µM and 24.3 µM
[44]
  TGI: 16.4 µM and 21.9 µM
[5]
  TGI: 21.2 µM and 26.8 µM
[6]
  GI50: 1.6 µM
  TGI: 2.05 µM and 4.39 µM
[7]
  GI50: 8.74 µM
  TGI: 12.4 µM and 26.6 µM
[45]
  TGI: 23.4 µM
[10]
  GI50: 12.5 µM
  TGI: 14.5 µM and 26.4 µM
[46]
  GI50: 13.4 µM
  TGI: 12.2 µM and 29.9 µM
[11]
  GI50: 2.3 µM
  TGI: 12.1 µM and 5.45 µM
[12]
  GI50: 2.83 µM
  TGI: 14.6 µM and 10.3 µM
[13]
  GI50: 2.7 µM
  TGI: 1.36 µM and 10.2 µM
[14]
  TGI: 20.5 µM and 23.3 µM
[15]
  GI50: 0.466 µM
  TGI: 13.6 µM and 6.71 µM
[47]
  GI50: 16.6 µM
  TGI: 20.9 µM and 73.2 µM
[48]
  TGI: 9.87 µM and 5.4 µM
[49]
  TGI: 18.3 µM
[16]
  TGI: 50 µM
[17]
  GI50: 2.94 µM
  TGI: 36.8 µM and 12.2 µM
[19]
  TGI: 26 µM
[21]
  GI50: 3.81 µM
  TGI: 11.9 µM and 13.8 µM
[50]
  TGI: 14.5 µM
[51]
  GI50: 2.9 µM
  TGI: 8.15 µM and 12 µM
[52]
  GI50: 13.4 µM
  TGI: 8.36 µM and 29 µM
[53]
  GI50: 7.47 µM
  TGI: 21.4 µM and 21.7 µM
[54]
  GI50: 3.51 µM
  TGI: 12.7 µM and 13.3 µM
[23]
  TGI: 5.56 µM
[55]
  GI50: 24 µM
  TGI: 15 µM and 46 µM
[24]
  GI50: 3.94 µM
  TGI: 13.1 µM and 15.5 µM
[25]
  GI50: 9.87 µM
  TGI: 15.9 µM and 40 µM
[26]
  GI50: 8.97 µM
  TGI: 11 µM and 27.2 µM
[56]
  GI50: 2.57 µM
  TGI: 50 µM and 10.4 µM
[27]
  GI50: 10.7 µM
  TGI: 16.5 µM and 23.5 µM
[28]
  TGI: 32.9 µM and 22.4 µM
[57]
  GI50: 19.3 µM
  TGI: 19.9 µM and 34.6 µM
[29]
  GI50: 2.78 µM
  TGI: 8.57 µM and 10.8 µM
[58]
  GI50: 2.45 µM
  TGI: 9.38 µM
[31]
  TGI: 8.57 µM
[32]
  GI50: 4.3 µM
  TGI: 17.7 µM and 17.2 µM
[33]
  GI50: 15.9 µM
  TGI: 19.6 µM and 32.7 µM
[59]
  GI50: 12 µM
  TGI: 3.32 µM and 26.4 µM
[60]
  GI50: 12.3 µM
  TGI: 13.5 µM and 25.5 µM
[34]
  GI50: 10.1 µM
  TGI: 11.3 µM and 22.7 µM
[61]
  GI50: 11.9 µM
  TGI: 12 µM and 25.1 µM
[62]
  GI50: 15.3 µM
  TGI: 19.1 µM and 29.7 µM
[35]
  GI50: 11.9 µM
  TGI: 14.5 µM and 26.8 µM
[36]
  GI50: 14.8 µM
  TGI: 15.2 µM and 30 µM
[63]
  TGI: 14.7 µM
[38]
  TGI: 50 µM
[39]
  GI50: 3.32 µM
  TGI: 5.45 µM and 11.8 µM
[64]
  TGI: 33.6 µM
[65]
  GI50: 22 µM
  TGI: 14.4 µM and 40.7 µM
[40]
  GI50: 4.66 µM
  TGI: 12.1 µM and 17.3 µM
[41]
  GI50: 2.93 µM
  TGI: 12.2 µM and 9.24 µM
[66]
  GI50: 10.9 µM
  TGI: 14.4 µM and 23.6 µM
[42]
  GI50: 5.87 µM
  TGI: 9.81 µM and 20.2 µM

## Cc1ccc(S(=O)(=O)N(CC(O)COc2ccccc2)c2ccccc2Cl)cc1 (configuration not stated)
[1]
  TGI: 32.4 µM
[2]
  TGI: 35 µM
[3]
  TGI: 27.9 µM
[4]
  TGI: 33.7 µM
[44]
  TGI: 31.4 µM
[5]
  TGI: 44.3 µM
[6]
  TGI: 40.4 µM
[7]
  TGI: 34 µM
[45]
  TGI: 57.5 µM
[10]
  TGI: 31.8 µM
[46]
  TGI: 37 µM
[11]
  TGI: 27.7 µM
[12]
  TGI: 29.3 µM
[13]
  TGI: 67.8 µM
[14]
  TGI: 34.8 µM
[47]
  TGI: 26.4 µM
[48]
  TGI: 31.9 µM
[49]
  TGI: 25.1 µM
[16]
  TGI: 36.1 µM
[17]
  TGI: 30.5 µM
[19]
  TGI: 38.8 µM
[21]
  TGI: 31 µM
[50]
  TGI: 29.2 µM
[51]
  TGI: 58.5 µM
[52]
  TGI: 29.3 µM
[53]
  TGI: 31.7 µM
[54]
  TGI: 33.2 µM
[23]
  TGI: 52.9 µM
[55]
  TGI: 32.3 µM
[24]
  TGI: 31.1 µM
[25]
  TGI: 36.2 µM
[26]
  TGI: 25.1 µM
[56]
  TGI: 37.8 µM
[27]
  TGI: 42.1 µM
[28]
  TGI: 26.1 µM
[57]
  TGI: 51 µM
[29]
  TGI: 33.5 µM
[58]
  TGI: 30.8 µM
[30]
  TGI: 30.4 µM
[31]
  TGI: 32 µM
[32]
  TGI: 35.7 µM
[33]
  TGI: 43.5 µM
[59]
  TGI: 33.2 µM
[60]
  TGI: 27 µM
[34]
  TGI: 29.1 µM
[61]
  TGI: 27.8 µM
[62]
  TGI: 52 µM
[35]
  TGI: 29.4 µM
[36]
  TGI: 39.5 µM
[63]
  TGI: 41.7 µM
[38]
  TGI: 35.1 µM
[39]
  TGI: 36.6 µM
[64]
  TGI: 69.7 µM
[65]
  TGI: 29.3 µM
[40]
  TGI: 29.2 µM
[41]
  TGI: 29.3 µM
[66]
  TGI: 21.5 µM
[42]
  TGI: 24.8 µM
